The text below walks through data of ChEMBL document CHEMBL1201862, “PubChem BioAssay data set” (2004).

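Method: 48-hour compound exposure of cells in 96-well plates, five concentrations, linear interpolation of endpoints. GI50 is the concentration that inhibits growth by half.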 Calls of active or inactive are those of the source. No stated cut-off is given here; in the data, active = GI50 up to about 1.1 µM and inactive = higher.

Some test systems named below: Hs-578T; DU-145; MDA-N; LOX IMVI; ACHN; Malme-3M; MOLT-4; NCI-H23; RPMI-8226; DMS-114; UACC-257; SW-620; SNB-78.
Assay in all cases: growth of human tumour cells (NCI), 48 h

With `COc1cc([C@@H]2c3cc4c(cc3[C@H](O)[C@H]3COC(=O)[C@H]23)OCO4)cc(OC)c1OC` [PODOFILOX], the GI50 in the assay on Hs-578T was < 5 nM (active); in the assay with DU-145 it was < 5 nM (active); in the assay on MDA-N it was < 5 nM (active); with LOX IMVI, < 5 nM (active); in the assay with ACHN it was < 5 nM (active); in the assay with Malme-3M, 3010 nM (inactive). Also, the GI50 in the assay on MOLT-4 is < 5 nM (active); in the assay on NCI-H23, < 5 nM (active); in the assay on RPMI-8226 it was < 5 nM (active); in the assay on DMS-114, 10 nM (active); in the assay with UACC-257, 29900 nM (inactive); in the assay on SW-620, < 5 nM (active). Besides, the GI50 in the assay on SNB-78 was 10 nM (active).
